Measurements from patent publication US8921567B2, “Process for preparing N-substituted 1H-pyrazole-5-carbonylchloride compounds” (BASF SE, priority 2011, dated 2014).

Assay: log P determination via capillary electrophorese on a cePro9600 from CombiSep
Type: physicochemical
Conditions: pH = 10.0
Procedure: log P determinations were performed via capillary electrophorese on a cePro9600™ from CombiSep.

Row | SMILES | logP
1 | Cc1cccc(C(=O)N=S2CCSC2)c1NC(=O)c1cc(C(F)(F)F)nn1-c1ncccc1Cl (centres unmarked) [Example 208] | logP: 2.2 [pH = 10.0];
2 | Cc1cc(Cl)cc(C(=O)N=S(C(C)C)C(C)C)c1NC(=O)c1cc(C(F)(F)F)nn1-c1ncccc1Cl [compound 24] | logP: 3.3 [pH = 10.0];
